Experimental data reported in a melting point compilation (Tetko et al.; mined from patent text by program, amines drawn as free bases though some values may be those of a salt).

Structure (SMILES) | melting point
CN1N=C(c2ccc(F)cc2)c2ccc(F)cc2CS1(=O)=O | 205 to 206 °C
COc1ccc(Cl)c(Oc2c(CO)nc(N3CCOCC3)nc2NS(=O)(=O)c2ccc(C(C)C)cn2)c1 | 105 °C
N#Cc1cnc2cc3ccccc3cc2c1Nc1ccc(Oc2ccccc2)cc1 | 250 to 251 °C
Nc1ccc2nc(-c3ccc4c(c3)OCO4)ncc2c1 | 191 to 192 °C
O=C(c1cc(Cl)ccc1O)c1cc(Cl)ccc1O | 154 °C
O=[N+]([O-])c1ccc(CS(=O)(=O)NCCc2ccccc2)cc1 | 101 to 103 °C
CN(C)c1ccccc1CS(=O)c1cnc2ccccc2n1 (stereo not drawn) | 114 to 115 °C
Nc1cc(Cl)cc(Cl)c1C(=O)NCc1cccc(Cl)c1 | 167 to 171 °C
O=C(Sc1ccc(O)cc1)c1ccc(CSc2ccc(O)cc2)cc1 | 202 to 209 °C
CN(C)C(=O)c1c(Cl)csc1-c1ncc(C(F)(F)F)cc1Cl | 85 to 86 °C
FC(F)(F)c1cccc(CSc2nnc(-c3ccc4nccn4c3)o2)c1 | 147 to 148 °C
CC(=O)c1ccc(CCNS(C)(=O)=O)cc1 | 80 to 81 °C
O=C(O)[C@H](Cc1ccccc1)N[C@@H](Cc1c[nH]c2ccccc12)C(=O)OCc1ccccc1 | 147 to 150 °C
CCCCc1ncc(/C=C(\Cc2cccs2)C(=O)O)n1Cc1ccc(C=CC(=O)O)cc1 | 199 to 203 °C
O=C(O)c1ccccc1Nc1ccnn1-c1ccccn1 | 216 to 218 °C
O=Cc1c[nH]c(Cc2ccccc2)n1 | 130 to 136 °C
CCCCN(CCCC)C(=O)Nc1ccc(C)cc1C | 48 to 50 °C
CN1CN(c2cccc([N+](=O)[O-])c2)c2ncccc2C1=O | 247 to 248 °C
COc1ccc(C=C(Br)Br)cc1OC(C)C | 67 to 69 °C
CC(C)CNc1nc(-c2ccccc2)c(Cl)n2c(Br)cnc12 | 138 °C
N#CC(Nc1ccc(SSc2ccc(NC(C#N)c3ccc(S(N)(=O)=O)cc3)cc2)cc1)c1ccc(S(N)(=O)=O)cc1 (stereo not drawn) | 251 to 255 °C
OC(CCCl)COc1ccc(Br)cc1 (stereo not drawn) | 75 to 78 °C
CCOc1ccn2nc(S(=O)(=O)Cl)nc2n1 | 91 to 96 °C

Structure (SMILES) | melting point
CC1Cc2ccc(Cl)cc2C(c2ccc([N+](=O)[O-])cc2)O1 (stereo not drawn) | 120 to 123 °C
O=C1Cc2cccc(Oc3ccccc3)c2O1 | 60 to 61 °C
O=C1C(=O)N(C(c2ccccc2)c2ccccc2)c2cc(F)ccc21 | 167 to 169 °C
O=C(Nc1ccc([N+](=O)[O-])cc1)c1ccc(Nc2ccncc2)cc1 | 298 to 302 °C
CC(C)(C#N)c1ccc(-n2c(-c3cc(-c4cnc5ccccc5c4)ccn3)c[nH]c2=O)cc1 | 271 °C
ClC1(Cl)C(c2ccccc2)C1(c1ccccc1)c1ccccc1 (stereo not drawn) | 106 to 107 °C
CSC(c1ccc(Cl)cc1)C(C(=O)C(C)(C)C)n1cncn1 (stereo not drawn) | 145 °C
Cc1ccccc1-c1cnc2c(C(F)(F)F)cccc2c1-c1cccc(NC(=O)Nc2ccccc2)c1 | 192 to 195 °C
O=C(NC(=O)c1ccco1)C(=O)Oc1ccc([N+](=O)[O-])cc1 | 115 °C
CN(C)Cc1ccccc1-c1ccc(Br)cc1 | 60 to 62 °C
CCc1c(C(C)C)nc(C(C)C)c(CO)c1-c1ccc(F)cc1 | 126 to 129 °C
CCCCOc1cc2c(Nc3cc(OC)c(Cl)cc3Cl)c(C#N)cnc2cc1OCCOC | 166 to 167 °C
COC1N=C(c2ccccc2Cl)c2cc(Cl)ccc2-c2c[nH]cc21 (stereo not drawn) | 215 to 218 °C
CCOc1cnc(N[N+](=O)[O-])[nH]c1=O | 189 to 192 °C
CSc1nn2c(N(C)C)cc(C)nc2c1S(=O)(=O)c1ccc2ccccc2c1 | > 230 °C
CC(=O)c1cn(C)cc(-c2cccc(Cl)c2)c1=O | 175 to 177 °C
CN(C)C(=O)c1cn(C)c(=O)cc1Nc1ccc(I)cc1F | 106 to 111 °C
C=CCSc1cc(C(=O)O)cc(S(=O)(=O)Cl)c1Oc1ccccc1 | 160 to 162 °C
Cc1cc(N2CCN(Cc3ccc(C(F)(F)F)cc3)C2=O)sc1C(=O)NCc1cccnc1 | 102 to 104 °C
CCn1ncc2c1ncc1c(=O)[nH]c3cc(C)nn3c12 | 285 to 286 °C
FC(F)(F)Oc1ccc(-c2ncc(CBr)cn2)cc1 | 80 to 81 °C
Cc1nnc2n1-c1ccc(C#CCn3ncc4ccccc43)cc1C(c1ccccc1F)=NC2 | 148 to 151 °C
CCC12CCC3C4CCC(=O)C=C4C(C)CC3C1CCC2O (stereo not drawn) | 127 to 130 °C

Next, values leading:

melting point | Structure (SMILES)
155 to 157 °C | O=C(c1ccccc1CN1CC=CCC1)N1CCN2C(=O)OC(c3ccccc3)(c3ccccc3)C2C1 (stereo not drawn)
140 °C | COC(=O)c1cnc2c(O)cccc2c1
177 to 179 °C | COc1ccc(C(=O)O)cc1OC1CCSC1 (stereo not drawn)
197 to 198 °C | CCOC(=O)C1=C(C(F)(F)F)NC2=C(C(=O)CCC2)C1c1nccn1C (stereo not drawn)
178 °C | CSc1c(C#N)c(=O)n2ccccc2c1C(C)=O
162 to 163 °C | CSC1=Nc2ccccc2C2=NCC(CBr)N12 (stereo not drawn)
110 to 112 °C | NC(=O)N(O)CC1CCCCCC1
139 to 140 °C | N#CCCNC(=O)c1cccc(-c2ccc3c(c2)N(Cc2ccc(Cl)cc2Cl)CCCC3)c1
263 to 265 °C | CCCCNC1NC(=O)N(c2ccc(O)cc2)C(=O)N1
102 to 103 °C | O=C1CC(c2ccccc2)CC(=O)O1
50 to 51 °C | CCOC(=O)C(Cc1cc(OC)c(OC)cc1OC)C(=O)OCC
165 to 166 °C | COC(=O)C1=CC(=O)CC(c2ccc(Cl)c(OC)c2F)N1 (stereo not drawn)
82 to 84 °C | CC(=O)OCC1OC(n2cc(C(Br)=CI)c(=O)[nH]c2=O)CC1OC(C)=O (stereo not drawn)
249 to 250 °C | NC(=O)c1ccc2c(c1-c1c(C(N)=O)ccc3c1OCO3)OCO2
143 to 145 °C | O=c1cc(N2CCOCC2)oc2cc(OS(=O)(=O)C(F)(F)F)ccc12
79 to 82 °C | CN(NC(=O)OCc1ccccc1)C(=O)NCC(F)F
168 to 170 °C | CS(=O)(=O)c1cc(S(F)(F)(F)(F)F)ccc1C(=O)c1cnoc1C1CC1
198 to 200 °C | NC(=O)c1cccc2nc3n(c12)CCCN3c1ccc(Cl)cc1Cl
120 to 121 °C | O=C(NC1CC1)c1cccc(-c2cccc3oc(Cc4cccc(C(F)(F)F)c4)cc23)c1
118 to 119 °C | CP(=O)(O)CNC(=O)OCc1ccccc1
167 to 170 °C | CCOC(=O)c1c(=O)c2cc(F)c(N3CCN(C)CC3)cc2n2ccccc12
163 to 165 °C | O=C(Nc1ccc(Cl)cc1)NS(=O)(=O)c1ccc2c(c1)CCCC2
170 to 172 °C | COc1ccccc1N1CCN(CCn2cnc3sc4c(c3c2=O)CCN(C(C)=O)C4)CC1
74 to 76 °C | CCCOC(=O)c1ccc(CCCCOCCCCCNCC(O)c2ccc(O)c(NS(C)(=O)=O)c2)cc1 (stereo not drawn)
60 to 63 °C | CCCCSC(=S)N1Cc2[nH]c3ccccc3c2CC1CO (stereo not drawn)
102 to 105 °C | CC(CCC(=O)O)C1CCC2C3C(O)C(F)C4CC(O)CCC4(C)C3CCC12C (stereo not drawn)
118 to 122 °C | COc1ccc(CC(C)=O)cc1S(=O)(=O)N1CCSCC1
